The record followed here is patent US10227323B2, “Glucosylceramide synthase inhibitors for the treatment of diseases” (BIOMARIN PHARMACEUTICAL INC., priority 2013, dated 2019).

Like-named read-outs stand apart in the source and are kept apart here. Where only a bound is given, the exact number is not on record here.

In this experiment the target is T1, GCS (Canis lupus familiaris, UniProt A0A8I3MXG6).
T1 sequence (A0A8I3MXG6 1-394): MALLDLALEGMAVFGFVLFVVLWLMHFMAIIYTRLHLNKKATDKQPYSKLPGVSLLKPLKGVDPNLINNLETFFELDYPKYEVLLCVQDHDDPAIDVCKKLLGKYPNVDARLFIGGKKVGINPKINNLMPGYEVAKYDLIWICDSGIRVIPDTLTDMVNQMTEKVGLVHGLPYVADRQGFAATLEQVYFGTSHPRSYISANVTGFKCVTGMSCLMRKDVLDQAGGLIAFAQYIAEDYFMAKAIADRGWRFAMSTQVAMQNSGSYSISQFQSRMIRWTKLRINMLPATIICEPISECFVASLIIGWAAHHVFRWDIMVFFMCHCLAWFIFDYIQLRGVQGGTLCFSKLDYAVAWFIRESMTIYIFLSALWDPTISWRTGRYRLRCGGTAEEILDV
Put plainly: Assay 1: GCS Enzymatic Assay (MDCK cell lysate, C6-NBD-Ceramide, LC/MS). It counts as biochemical, canine. The conditions noted are these: read-out: IC50 (nM) generated from Assay 1. In outline: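 LC/MS/MS measurement of glucosylceramide and NBD-ceramide after a 1 h, 37 °C reaction with 100 μM UDP-glucose and 10 μM C6-NBD-ceramide gave IC50s or percent inhibition.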

In the case of `O=C(N[C@H](CN1CCCC1)[C@H](O)c1cc(F)c2c(c1)OCCO2)C(=O)c1ccc(-c2ccn(C3CC3)n2)cc1` [Example 350, 2-(4-(1-cyclopropyl-1H-pyrazol-3-yl)phenyl)-N-((1R,2R)-1-(8-fluoro-2,3-dihydrobenzo[b][1,4]dioxin-6-yl)-1-hydroxy-3-(pyrrolidin-1-yl)propan-2-yl)-2-oxoacetamide], under “Table 2, data without asterisk”, the IC50 was less than 50 nM.
The same measure, in the same setting: in the case of `CC(C)n1ccc(-c2ccc(C(=O)C(=O)N[C@H](CN3CCCC3)[C@H](O)c3ccc(OC4CC4)c(Cl)c3)cc2)n1` [Example 351, N-((1R,2R)-1-(3-chloro-4-cyclopropoxyphenyl)-1-hydroxy-3-(pyrrolidin-1-yl)propan-2-yl)-2-(4-(1-isopropyl-1H-pyrazol-3-yl)phenyl)-2-oxoacetamide] it was less than 50 nM.
On to `CC(C)n1ccc(-c2ccc(C(=O)C(=O)N[C@H](CN3CCCC3)[C@H](O)c3cc(F)c4c(c3)OCCO4)cc2)n1` [Example 352, N-((1R,2R)-1-(8-fluoro-2,3-dihydrobenzo[b][1,4]dioxin-6-yl)-1-hydroxy-3-(pyrrolidin-1-yl)propan-2-yl)-2-(4-(1-isopropyl-1H-pyrazol-3-yl)phenyl)-2-oxoacetamide], for which the IC50 (Table 2, data without asterisk) is less than 50 nM.
The same measure, in the same setting: under `O=C(N[C@H](CN1CCCC1)[C@H](O)c1ccc(OC2CC2)c(Cl)c1)C(=O)c1ccc2c(cnn2-c2ccc(F)cc2)c1` [Example 353, N-((1R,2R)-1-(3-chloro-4-cyclopropoxyphenyl)-1-hydroxy-3-(pyrrolidin-1-yl)propan-2-yl)-2-(1-(4-fluorophenyl)-1H-indazol-5-yl)-2-oxoacetamide] stands less than 50 nM; under `O=C(N[C@H](CN1CCCC1)[C@H](O)c1ccc(OC2CC2)c(Cl)c1)C(=O)c1ccc2nn(-c3ccc(F)cc3)cc2c1` [Example 354, N-((1R,2R)-1-(3-chloro-4-cyclopropoxyphenyl)-1-hydroxy-3-(pyrrolidin-1-yl)propan-2-yl)-2-(2-(4-fluorophenyl)-2H-indazol-5-yl)-2-oxoacetamide], less than 50 nM; under `C=C(C)c1ccc(-c2ccc(C(=O)C(=O)N[C@H](CN3CCCC3)[C@H](O)c3ccc(OC4CC4)c(Cl)c3)cc2)cc1` [Example 355, N-((1R,2R)-1-(3-chloro-4-cyclopropoxyphenyl)-1-hydroxy-3-(pyrrolidin-1-yl)propan-2-yl)-2-oxo-2-(4′-(prop-1-en-2-yl)-[1,1′-biphenyl]-4-yl)acetamide], less than 50 nM.
On the same count and under the same terms, under `CC(C)(O)c1ccc(-c2ccc(C(=O)C(=O)N[C@H](CN3CCCC3)[C@H](O)c3cc(F)c4c(c3)OCCO4)cc2)cc1` [Example 356, N-((1R,2R)-1-(8-fluoro-2,3-dihydrobenzo[b][1,4]dioxin-6-yl)-1-hydroxy-3-(pyrrolidin-1-yl)propan-2-yl)-2-(4′-(2-hydroxypropan-2-yl)-[1,1′-biphenyl]-4-yl)-2-oxoacetamide] stands less than 50 nM.
The same measure, in the same setting: under `CC(C)c1ccc(-c2ccc(C(=O)C(=O)N[C@H](CN3CCCC3)[C@H](O)c3cc(F)c4c(c3)OCCO4)cc2)cc1` [Example 357, N-((1R,2R)-1-(8-fluoro-2,3-dihydrobenzo[b][1,4]dioxin-6-yl)-1-hydroxy-3-(pyrrolidin-1-yl)propan-2-yl)-2-(4′-isopropyl-[1,1′-biphenyl]-4-yl)-2-oxoacetamide] stands less than 50 nM; under `CC(C)(O)c1ccc(-c2ccc(C(=O)C(=O)N[C@H](CN3CCCC3)[C@H](O)c3ccc(OC4CC4)c(Cl)c3)cc2)cc1` [Example 358, N-((1R,2R)-1-(3-chloro-4-cyclopropoxyphenyl)-1-hydroxy-3-(pyrrolidin-1-yl)propan-2-yl)-2-(4′-(2-hydroxypropan-2-yl)-[1,1′-biphenyl]-4-yl)-2-oxoacetamide], less than 50 nM.
Regarding `O=C(N[C@H](CN1CCCC1)[C@H](O)c1ccc(OC2CC2)c(F)c1)C(=O)c1ccc(-c2ccc(Cl)s2)cc1` [Example 359, 2-(4-(5-chlorothiophen-2-yl)phenyl)-N-((1R,2R)-1-(4-cyclopropoxy-3-fluorophenyl)-1-hydroxy-3-(pyrrolidin-1-yl)propan-2-yl)-2-oxoacetamide], under “Table 2, data without asterisk”, the IC50 was less than 50 nM.
Turning to `O=C(N[C@H](CN1CCCC1)[C@H](O)c1ccc(OC2CC2)c(Cl)c1)C(=O)c1cc2cc(Cl)ccc2s1` [Example 384, N-((1R,2R)-1-(3-chloro-4-cyclopropoxyphenyl)-1-hydroxy-3-(pyrrolidin-1-yl)propan-2-yl)-2-(5-chlorobenzo[b]thiophen-2-yl)-2-oxoacetamide], where the note is “Table 3, MDCK cell lysate”, the IC50 is less than 50 nM.
With `O=C(N[C@H](CN1CCCC1)[C@H](O)c1ccc(OC2CC2)c(Cl)c1)C(=O)c1ccc(-n2ccnn2)cc1` [Example 385, 2-(4-(1H-1,2,3-triazol-1-yl)phenyl)-N-((1R,2R)-1-(3-chloro-4-cyclopropoxyphenyl)-1-hydroxy-3-(pyrrolidin-1-yl)propan-2-yl)-2-oxoacetamide], under “Table 3, MDCK cell lysate”, the IC50 was in the range of 50 to 5000 nM.
The same measure, in the same setting: under `O=C(N[C@H](CN1CCCC1)[C@H](O)c1ccc(Cl)cc1)C(=O)c1cc2ccc(Cl)cc2s1` [Example 386, 2-(6-chlorobenzo[b]thiophen-2-yl)-N-((1R,2R)-1-(4-chlorophenyl)-1-hydroxy-3-(pyrrolidin-1-yl)propan-2-yl)-2-oxoacetamide] stands 50 to 5000 nM; under `O=C(N[C@H](CN1CCC1)[C@H](O)c1ccc(OC2CC2)c(F)c1)C(=O)c1cc2cc(Cl)ccc2s1` [Example 387, N-((1R,2R)-3-(azetidin-1-yl)-1-(4-cyclopropoxy-3-fluorophenyl)-1-hydroxypropan-2-yl)-2-(5-chlorobenzo[b]thiophen-2-yl)-2-oxoacetamide], less than 50 nM; under `O=C(N[C@H](CN1CCCC1)[C@H](O)c1ccc(OC2CC2)cc1)C(=O)c1cc2ccccc2s1` [Example 388, 2-(benzo[b]thiophen-2-yl)-N-((1R,2R)-1-(4-cyclopropoxyphenyl)-1-hydroxy-3-(pyrrolidin-1-yl)propan-2-yl)-2-oxoacetamide], less than 50 nM.
Same read-out and setting: under `O=C(N[C@H](CN1CCCC1)[C@H](O)c1ccc(Cl)cc1)C(=O)c1ccc(-c2ccc(F)cc2)cc1` [Example 389, N-((1R,2R)-1-(4-chlorophenyl)-1-hydroxy-3-(pyrrolidin-1-yl)propan-2-yl)-2-(4′-fluoro-[1,1′-biphenyl]-4-yl)-2-oxoacetamide] stands 50 to 5000 nM; under `O=C(N[C@H](CN1CCCC1)[C@H](O)c1ccc(OC2CC2)cc1)C(F)(F)CCc1ccc2ccccc2c1` [Example 390, N-((1R,2R)-1-(4-cyclopropoxyphenyl)-1-hydroxy-3-(pyrrolidin-1-yl)propan-2-yl)-2,2-difluoro-4-(naphthalen-2-yl)butanamide], less than 50 nM.
Same read-out and setting: in the case of `O=C(N[C@H](CN1CCCC1)[C@H](O)c1ccc(OC2CC2)cc1)C(=O)c1cc2cc(Cl)ccc2s1` [Example 391, 2-(5-chlorobenzo[b]thiophen-2-yl)-N-((1R,2R)-1-(4-cyclopropoxyphenyl)-1-hydroxy-3-(pyrrolidin-1-yl)propan-2-yl)-2-oxoacetamide] it was less than 50 nM; in that of `O=C(N[C@H](CN1CCCC1)[C@H](O)c1ccc(OC2CC2)cc1)C(=O)c1ccc(-c2ccc(Cl)s2)cc1` [Example 392, 2-(4-(5-chlorothiophen-2-yl)phenyl)-N-((1R,2R)-1-(4-cyclopropoxyphenyl)-1-hydroxy-3-(pyrrolidin-1-yl)propan-2-yl)-2-oxoacetamide], less than 50 nM.
For the molecule `O=C(N[C@H](CN1CCCC1)[C@H](O)c1ccc(OC2CC2)cc1)C(F)(F)c1ccc(-c2ccc(Cl)s2)cc1` [Example 393, 2-(4-(5-chlorothiophen-2-yl)phenyl)-N-((1R,2R)-1-(4-cyclopropoxyphenyl)-1-hydroxy-3-(pyrrolidin-1-yl)propan-2-yl)-2,2-difluoroacetamide], the concentration for half-maximal inhibition (IC50) (Table 3, MDCK cell lysate) was less than 50 nM.
For `O=C(N[C@H](CN1CCCC1)[C@H](O)c1ccc(OC2CC2)cc1)C(F)(F)c1ccc(-c2ccc(F)cc2)cc1` [Example 394, N-((1R,2R)-1-(4-cyclopropoxyphenyl)-1-hydroxy-3-(pyrrolidin-1-yl)propan-2-yl)-2,2-difluoro-2-(4′-fluoro-[1,1′-biphenyl]-4-yl)acetamide], where the note is “Table 3, MDCK cell lysate”, the IC50 is less than 50 nM.
On the same count and under the same terms, under `O=C(N[C@H](CN1CCCC1)[C@H](O)c1ccc(OC2CC2)c(F)c1)C(=O)c1ccc(C2CC2)cc1` [Example 395, N-((1R,2R)-1-(4-cyclopropoxy-3-fluorophenyl)-1-hydroxy-3-(pyrrolidin-1-yl)propan-2-yl)-2-(4-cyclopropylphenyl)-2-oxoacetamide] stands less than 50 nM.
The same measure, in the same setting: in the case of `O=C(N[C@H](CN1CCCC1)[C@H](O)c1ccc(OC2CC2)c(Cl)c1)C(F)(F)c1ccc(-c2ccc(Cl)s2)cc1` [Example 396, N-((1R,2R)-1-(3-chloro-4-cyclopropoxyphenyl)-1-hydroxy-3-(pyrrolidin-1-yl)propan-2-yl)-2-(4-(5-chlorothiophen-2-yl)phenyl)-2,2-difluoroacetamide] it was less than 50 nM.
Same read-out and setting: under `O=C(N[C@H](CN1CCCC1)[C@H](O)c1ccc(OC2CC2)c(F)c1)C(F)(F)c1ccc(-c2ccc(Cl)s2)cc1` [Example 397, 2-(4-(5-chlorothiophen-2-yl)phenyl)-N-((1R,2R)-1-(4-cyclopropoxy-3-fluorophenyl)-1-hydroxy-3-(pyrrolidin-1-yl)propan-2-yl)-2,2-difluoroacetamide] stands less than 50 nM.
